# Publication PMC7368552 (ACS chemical neuroscience, 2018)
# Like-named read-outs stand apart in the source and are kept apart here.
# Legend:
# [1] = test system: GSK-3β mediated tau phosphorylation at pS396; experiment: SH-SY5Y whole-cell lysate GSK-3β assay with human tau pS396 ELISA; format: biochemical; settings: for effect on GSK-3β mediated tau hyperphosphorylation (pS396): 2, 10 and 50 μM, 2 h, 37 °C, lysate fortified with 0.25% GSK-3β, ELISA
# [2] = Parallel artificial membrane permeability assay; settings: PAMPA; for Papp at 5 h, 20 μM: pH 7.4, PAMPA permeability classification, pH 7.4, 5 h
# [3] = target: T1, GSK-3β (Homo sapiens, UniProt P49841); experiment: GSK-3β kinetic studies; format: biochemical; settings: 30 0 to 5 μM
# T1 sequence (P49841 whole entry): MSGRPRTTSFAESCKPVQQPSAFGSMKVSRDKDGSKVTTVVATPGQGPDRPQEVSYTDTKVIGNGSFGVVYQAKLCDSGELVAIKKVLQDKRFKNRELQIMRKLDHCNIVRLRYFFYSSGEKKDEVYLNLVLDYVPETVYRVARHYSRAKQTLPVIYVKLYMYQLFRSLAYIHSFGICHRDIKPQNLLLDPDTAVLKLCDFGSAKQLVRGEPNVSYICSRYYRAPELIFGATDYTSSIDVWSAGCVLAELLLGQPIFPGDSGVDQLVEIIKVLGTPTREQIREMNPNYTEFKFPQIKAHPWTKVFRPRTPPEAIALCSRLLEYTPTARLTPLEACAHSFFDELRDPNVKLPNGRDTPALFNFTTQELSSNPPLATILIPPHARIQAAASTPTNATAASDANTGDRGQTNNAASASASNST
# [4] = test system: SH-SY5Y cells; experiment: Cytotoxicity assessment in SH-SY5Y cells; format: cell-based, human; settings: 72 h
# [5] = test system: Aβ42 induced neurotoxicity in SH-SY5Y cells; experiment: Anti-Aβ42 neurotoxicity assay in SH-SY5Y cells; format: cell-based, human
# [6] = target: T1, GSK-3β; experiment: ADP-Glo kinase luminescent assay, GSK-3β inhibition; format: biochemical; settings: for Ligand-lipophilic efficiency (LiPE): LiPE = pIC50 – CLogP
# [7] = test system: panel of 41 human protein kinases; experiment: Kinase selectivity screening, panel of 41 human protein kinases; format: biochemical; settings: 5 μM
# [8] = test system: Aβ42 induced neurotoxicity in SH-SY5Y cells; settings: cited from earlier work
# [9] = test system: GSK-3β; settings: read-out: GSK-3β inhibition IC50; cited from earlier work
smiles,measurement,setting,value
"COc1ccc(-c2cc(=O)c3c(OC)c([C@@H]4O[C@H](C(=O)N[C@@H](C)C(F)(F)F)[C@@H](O)[C@H](O)[C@H]4O)c(OC)cc3o2)cc1OC [compound 30, (2S,3S,4R,5R,6S)-6-(2-(3,4-Dimethoxyphenyl)-5,7-dimethoxy-4-oxo-4H-chromen-6-yl)-3,4,5-trihydroxy-N-((S)-1,1,1-trifluoropropan-2-yl)tetrahydro-2H-pyran-2-carboxamide]",anti-tau effect relative to TDZD-8,"[1]; 10 μM, TDZD-8 at the same concentration",comparable to TDZD-8
same,effect on GSK-3β mediated tau hyperphosphorylation (pS396),[1],effectively attenuated tau hyperphosphorylation in a dose-dependent manner
same,"recovery at 5 h, 20 μM",[2]; pH 7.4,30%
same,"Papp at 5 h, 20 μM",[2],> 1.5 ×10⁻⁶ cm/s
same,inhibition mode with respect to substrate GS2,"[3]; ATP 10 μM, GS2 8 to 66 μM",competed with the substrate GS2
same,inhibition mode with respect to ATP,"[3]; GS2 17 μM, ATP 2 to 50 μM",no competition between ATP and 30
same,dose with no observable cytotoxicity,[4],≤ 1000 µM
same,cell viability recovered (from 40% with Aβ42 alone),"[5]; pretreatment 1.25 to 20 μM for 1 h, then 10 μM Aβ42 for 72 h, dose-dependent",100%
same,effective dose protecting SH-SY5Y cells from Aβ42 (morphology),"[5]; pretreatment, 10 μM Aβ42, 72 h",10 μM
same,selectivity to GSK-3β versus GSK-3α,"[6]; 5 μM, ratio of % inhibition",12.3 fold
same,fold increased potency against GSK-3β compared to 9,[6]; 30 compared to 9,approximately 9 fold
same,fold more potent against GSK-3β than epimer 31,[6]; 30 compared to 31,about 4 fold
same,inhibition of 40 out of 41 kinases in the test panel,[7],marginal or weak inhibition
"COC(=O)[C@H]1O[C@@H](c2c(OC)cc3oc(-c4ccc(OC)c(OC)c4)cc(=O)c3c2OC)[C@H](O)[C@@H](O)[C@@H]1O [compound 7, Methyl (2S,3S,4R,5R,6S)-6-(2-(3,4-Dimethoxyphenyl)-5,7-dimethoxy-4-oxo-4H-chromen-6-yl)-3,4,5-trihydroxytetrahydro-2H-pyran-2-carboxylate]",fold increase of potency against GSK-3β in comparison with 1,[6]; ratio of IC50 values relative to isoorientin 1,1.37 fold
"O=c1cc(-c2ccc(O)c(O)c2)oc2c([C@@H]3O[C@H](CO)[C@@H](O)[C@H](O)[C@H]3O)c(O)cc(O)c12 [compound 3, orientin, reference compound]",IC50,"[6]; GSK-3β inhibition, IC50, as stated in text",> 5000 µM
"COc1ccc(-c2cc(=O)c3c(OC)c([C@@H]4O[C@H](C(=O)NCc5ccccc5)[C@@H](O)[C@H](O)[C@H]4O)c(OC)cc3o2)cc1OC [compound 21, (2S,3S,4R,5R,6S)-6-(2-(3,4-Dimethoxyphenyl)-5,7-dimethoxy-4-oxo-4H-chromen-6-yl)-3,4,5-trihydroxy-N-benzyltetrahydro-2H-pyran-2-carboxamide]",effect on GSK-3β mediated tau hyperphosphorylation (pS396),[1],effectively attenuated tau hyperphosphorylation in a dose-dependent manner
same,"Papp at 5 h, 20 μM",[2],1 to 1.5 ×10⁻⁶ cm/s
"O=c1cc(-c2ccc(O)c(O)c2)oc2cc(O)c([C@@H]3O[C@H](CO)[C@@H](O)[C@H](O)[C@H]3O)c(O)c12 [compound 1, isoorientin]",effective dose protecting SH-SY5Y cells from Aβ42 (morphology),[8],200 μM
same,EC50,"[8]; read-out: neuroprotective potency, EC50, parent compound",47 µM
"COc1ccc(-c2cc(=O)c3c(OC)c([C@@H]4O[C@H](C(=O)N[C@H](C)C(F)(F)F)[C@@H](O)[C@H](O)[C@H]4O)c(OC)cc3o2)cc1OC [compound 31, (2S,3S,4R,5R,6S)-6-(2-(3,4-Dimethoxyphenyl)-5,7-dimethoxy-4-oxo-4H-chromen-6-yl)-3,4,5-trihydroxy-N-((R)-1,1,1-trifluoropropan-2-yl)tetrahydro-2H-pyran-2-carboxamide]",Ligand-lipophilic efficiency (LiPE),[6],≥ 4
"COc1ccc(-c2cc(=O)c3c(OC)c([C@@H]4O[C@H](C(=O)NC5CCCCC5)[C@@H](O)[C@H](O)[C@H]4O)c(OC)cc3o2)cc1OC [compound 17, (2S,3S,4R,5R,6S)-N-Cyclohexyl-6-(2-(3,4-dimethoxyphenyl)-5,7-dimethoxy-4-oxo-4H-chromen-6-yl)-3,4,5-trihydroxytetrahydro-2H-pyran-2-carboxamide]",effect on GSK-3β mediated tau hyperphosphorylation (pS396),[1],effectively attenuated tau hyperphosphorylation in a dose-dependent manner
same,"Papp at 5 h, 20 μM",[2],> 1.5 ×10⁻⁶ cm/s
"O=C([O-])[O-].[Li+].[Li+] [Lithium carbonate, lithium carbonate]",IC50,[9],2000 µM
"COc1ccc(-c2cc(=O)c3c(OC)c([C@@H]4O[C@H](C(=O)NC(C)C)[C@@H](O)[C@H](O)[C@H]4O)c(OC)cc3o2)cc1OC [compound 9, (2S,3S,4R,5R,6S)-6-(2-(3,4-Dimethoxyphenyl)-5,7-dimethoxy-4-oxo-4H-chromen-6-yl)-3,4,5-trihydroxy-N-isopropyltetrahydro-2H-pyran-2-carboxamide]",effect on GSK-3β mediated tau hyperphosphorylation (pS396),[1],effectively attenuated tau hyperphosphorylation in a dose-dependent manner
same,"Papp at 5 h, 20 μM",[2],> 1.5 ×10⁻⁶ cm/s
same,Ligand-lipophilic efficiency (LiPE),[6],≥ 4
